# From ChEMBL document CHEMBL1138541, “Design, synthesis, and evaluation of benzophenone derivatives as novel acetylcholinesterase inhibitors” (Eur J Med Chem, 2009)
# How the values were obtained:
# Acetylcholinesterase = Acetylcholinesterase (Homo sapiens, UniProt P22303); experiment: Inhibition of human recombinant AChE by Ellman's method
# Cholinesterase = Cholinesterase (Homo sapiens, UniProt P06276); experiment: Inhibition of human serum BChE by Ellman's method
# Cholinesterase, sequence (P06276 whole entry): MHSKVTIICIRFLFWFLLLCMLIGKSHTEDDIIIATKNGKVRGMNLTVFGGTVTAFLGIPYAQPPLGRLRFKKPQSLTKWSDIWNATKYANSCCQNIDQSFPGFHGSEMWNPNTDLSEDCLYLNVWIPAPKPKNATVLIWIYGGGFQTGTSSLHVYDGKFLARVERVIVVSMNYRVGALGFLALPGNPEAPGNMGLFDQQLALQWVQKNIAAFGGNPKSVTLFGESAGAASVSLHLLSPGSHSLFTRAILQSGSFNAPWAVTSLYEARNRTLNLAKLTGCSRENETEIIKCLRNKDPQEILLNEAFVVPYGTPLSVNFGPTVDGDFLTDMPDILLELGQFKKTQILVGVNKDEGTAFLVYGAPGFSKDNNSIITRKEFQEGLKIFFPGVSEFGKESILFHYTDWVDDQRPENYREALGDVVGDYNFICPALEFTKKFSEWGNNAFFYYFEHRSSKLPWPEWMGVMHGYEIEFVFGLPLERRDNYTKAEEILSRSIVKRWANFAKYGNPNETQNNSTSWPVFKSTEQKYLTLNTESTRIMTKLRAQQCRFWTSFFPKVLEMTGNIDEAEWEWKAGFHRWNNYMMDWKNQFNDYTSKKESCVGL
# Acetylcholinesterase, sequence (P22303 whole entry): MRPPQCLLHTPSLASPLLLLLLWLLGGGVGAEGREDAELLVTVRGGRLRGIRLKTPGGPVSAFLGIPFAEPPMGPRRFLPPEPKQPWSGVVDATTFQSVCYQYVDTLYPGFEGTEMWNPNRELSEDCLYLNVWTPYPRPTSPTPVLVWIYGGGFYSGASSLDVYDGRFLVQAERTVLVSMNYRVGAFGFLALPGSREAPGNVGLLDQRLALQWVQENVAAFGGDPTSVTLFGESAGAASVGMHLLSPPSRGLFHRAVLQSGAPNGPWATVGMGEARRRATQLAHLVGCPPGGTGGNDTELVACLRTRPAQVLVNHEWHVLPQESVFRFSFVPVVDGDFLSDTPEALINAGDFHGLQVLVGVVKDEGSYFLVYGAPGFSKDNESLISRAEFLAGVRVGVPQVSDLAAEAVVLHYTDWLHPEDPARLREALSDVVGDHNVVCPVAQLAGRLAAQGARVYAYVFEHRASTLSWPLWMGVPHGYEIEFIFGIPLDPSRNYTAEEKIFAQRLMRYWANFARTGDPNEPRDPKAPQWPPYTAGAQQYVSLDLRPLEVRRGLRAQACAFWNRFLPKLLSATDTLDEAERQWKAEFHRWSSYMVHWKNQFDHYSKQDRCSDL
Structure (SMILES),IC50 (Acetylcholinesterase),IC50 (Cholinesterase)
C#CCN(C)Cc1ccc(C(=O)c2ccc(OC)c(OC)c2)cc1,27.2 µM,–
CCN(Cc1ccccc1)Cc1ccc(C(=O)c2ccc(OC)c(OC)c2)cc1,0.57 µM,71.5 µM
COc1ccc(C(=O)c2ccc(CN(C)Cc3ccccc3)cc2)cc1OC,0.46 µM,60.7 µM
COc1ccc(C(=O)c2ccc(CN3CCOCC3)cc2)cc1OC,345 µM,–
COc1ccc(C(=O)c2ccc(CN(CCO)Cc3ccccc3)cc2)cc1OC,1.41 µM,172 µM
COc1ccccc1CN(C)Cc1ccc(C(=O)c2ccc(OC)c(OC)c2)cc1,3.71 µM,16.2 µM
COc1ccc(C(=O)c2ccc(CN(C)Cc3ccccc3)cc2)cc1,1.82 µM,> 100 µM
COc1ccc(C(=O)c2ccc(CN(CCN(C)C)Cc3ccccc3)cc2)cc1OC,8.64 µM,33.2 µM
COc1ccc(C(=O)c2ccc(CN(C)Cc3cccc([N+](=O)[O-])c3)cc2)cc1OC,4.27 µM,> 100 µM
COc1ccc(C(=O)c2ccc(CN(C)Cc3ccccc3)cc2)cc1F,1.57 µM,> 100 µM
COc1ccc(C(=O)c2ccc(CN3CCc4ccccc4C3)cc2)cc1OC,54 µM,–
CN(Cc1ccccc1)Cc1ccc(C(=O)c2ccc3ccccc3c2)cc1,19.6 µM,–
CCN(CC)Cc1ccc(C(=O)c2ccc(OC)c(OC)c2)cc1,36.8 µM,–
COc1ccc(C(=O)c2ccc(CN(C)Cc3cccc(C)c3)cc2)cc1OC,1.65 µM,125 µM
COc1ccc(C(=O)c2ccc(CN(C)CCN(C)C)cc2)cc1OC,2.37 µM,88.8 µM
COc1ccc(C(=O)c2ccc(/C=C/CN(C)Cc3ccccc3)cc2)cc1OC,2.1 µM,44 µM
